According to patent publication US20080207614A1, “QUINAZOLINE DERIVATIVES FOR THE TREATMENT AND PREVENTION OF DIABETES AND OBESITY” (SK CHEMICALS CO., LTD., priority 2004, published 2008):

How the values were obtained:
[1] = tested on: C2C12 muscle cells; assay: Analysis of glucose absorption (2-deoxyglucose) in differentiated C2C12 muscle cells; format: cell-based; conditions: test materials 10 μM, times relative to control group
In short: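 Uptake of 0.2 μCi 2-deoxyglucose over 20 min, counted radiometrically in lysed cells. Before tracer, compounds (10 μM) were applied for 30 min to C2C12 cells differentiated 6 days in 1% serum and equilibrated 3 h in 5 mM glucose KRB.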

[2] = tested on: AMPK; assay: Measurement of AMPK activity by Western blot in C2C12 cells; format: cell-based; design: key to AMPK activity (degree of phosphorylation of serine-79 and threonine-172): fold increase in threonine-172 phosphorylation; AMPK activity (degree of phosphorylation of serine-79): unit not given here; conditions: 10 μM for 50 minutes; for AMPK activity (degree of phosphorylation of serine-79): footnote a: Western blot of serine-79 phosphorylation; for AMPK activity (degree of phosphorylation of serine-79 and threonine-172): no superscript: Western blot of serine-79 and threonine-172 phosphorylation; for AMPK activity (class: degree of phosphorylation of threonine-172): strong/mild/weak
Description: C2C12 cells were cultured and differentiated in the same manner as in Experimental Example 1. Treatment with the test materials was also performed in the same manner as in Experimental Example 1 (10 μM for 50 minutes). The culture medium was removed and the cells were washed for 2 times with PBS and protein extracts were obtained using a lysis buffer (50 mM tris-HCl, pH 7.4, 1% NP-40, 0.25% sodium deoxycholate, 150 mM NaCl, 1 mM EDTA, 1 mM PMSF, 1 mM sodium o-vanadate, 1 mM NaF, 1 μg/mL apronitin, 1 μg/mL leu-peptin, 1 μg/mL pepstatin). The AMPK activity was determined from Western blot analysis of the degree of phosphorylation of serine-79 […] acetyl CoA carboxylase and the degree of phosphorylation of threonine-172. The amount of ERK (extracellular signal regulated protein kinase) was confirmed by Western blot in order to quantify the proteins.
The result of Western blot analysis is given in Table 3 below, wherein “strong” means that the degree of phosphorylation of threonine-172 increased by 3 times or more, “mild” means that the degree of phosphorylation of threonine-172 increased by 1 to 3 times and “weak” means that the degree of phosphorylation of threonine-172 increased by less than 1 time.

Row | SMILES | AMPK activity (degree of phosphorylation of serine-79 and threonine-172) [2] | also measured
1 | CCSc1nc(NC(C)C)c2ccccc2n1 [Compound 8, (2-Ethylsulfanylquinazolino-4-yl)-isopropylamine] |  | Glucose absorption [1]: 1.2; AMPK activity (degree of phosphorylation of serine-79) [2]: 3.0^a
2 | COc1ccc(CNc2nc(C3CCCCC3)nc3ccccc23)cc1 [Compound 201, (2-Cyclohexylquinazolino-4-yl)-(4-methoxybenzyl)-amine] | 2.8 | Glucose absorption [1]: 1.7; AMPK activity (class: degree of phosphorylation of threonine-172) [2]: strong (“strong” means that the degree of phosphorylation of threonine-172 increased by 3 times or more)
3 | ClC(Cl)(Cl)c1nc(NC2CC2)c2ccccc2n1 [Compound 3, Cyclopropyl-(2-trichloromethylquinazolino-4-yl)-amine] |  | Glucose absorption [1]: 1.2; AMPK activity (degree of phosphorylation of serine-79) [2]: 3.3^a
4 | COc1cccc(CNc2ncnc3ccccc23)c1OC [Compound 408, (2,3-Dimethoxybenzyl)-quinazolino-4-ylamine] | 3.5 | Glucose absorption [1]: 1.6
5 | COc1ccc(CNc2nc(C(C)c3ccccc3)nc3ccccc23)cc1 (centres unmarked) [Compound 373, (4-Methoxybenzyl)-[2-(1-phenylethyl)-quinazolino-4-yl]-amine] | 2.1 | Glucose absorption [1]: 1.1
6 | CCOc1cc2ncnc(NCCCN3CCOCC3)c2cc1OCC [Compound 15, (6,7-Diethoxyquinazolino-4-yl)-(3-morpholino-4-ylpropyl)-amine] |  | Glucose absorption [1]: 0.8; AMPK activity (degree of phosphorylation of serine-79) [2]: 2.3^a
7 | COc1cccc(CNc2nc(-c3cccs3)nc3ccccc23)c1OC [Compound 353, (2,3-Dimethoxybenzyl)-(2-thiopenyl-2-ylquinazolino-4-yl)-amine] | 0.8 | Glucose absorption [1]: 1.2
8 | CCSc1nc(NCc2ccc3c(c2)OCO3)c2ccccc2n1 [Compound 37, Benzo[1,3]dioxol-5-ylmethyl-(2-ethylsulfanylquinazolino-4-yl)-amine] |  | Glucose absorption [1]: 2.2; AMPK activity (class: degree of phosphorylation of threonine-172) [2]: strong (“strong” means that the degree of phosphorylation of threonine-172 increased by 3 times or more)
9 | COc1ccc(CNc2nc(N3CCCCC3)nc3ccccc23)c(OC)c1 [Compound 292, (2,4-Dimethoxybenzyl)-(2-piperidino-1-ylquinazolino-4-yl)-amine] | 1.2 | Glucose absorption [1]: 0.7
10 | CCCc1nc(NCc2cccc(OC)c2OC)c2ccccc2n1 [Compound 397, (2,3-Dimethoxybenzyl)-(2-propylquinazolino-4-yl)-amine] | 6.5 | Glucose absorption [1]: 1.3
11 | CCCc1nc(NCc2ccccc2OC)c2ccccc2n1 [Compound 393, (2-Methoxybenzyl)-(2-propylquinazolino-4-yl)-amine] | 1.0 | 
12 | COc1cc(CNc2nc(N3CCOCC3)nc3ccccc23)cc(OC)c1OC [Compound 313, (2-Morpholino-4-ylquinazolino-4-yl)-(3,4,5-trimethoxybenzyl)-amine] | 0.1 | 
13 | COc1cccc(CNc2nc(C3CC3)nc3ccccc23)c1OC [Compound 386, (2-Cyclopropylquinazolino-4-yl)-(2,3-dimethoxybenzyl)-amine] | 1.3 | 
14 | COc1cc(OC)c(CNc2nc(-c3cccs3)nc3ccccc23)c(OC)c1 [Compound 359, (2-Thiopenyl-2-ylquinazolino-4-yl)-(2,4,6-trimethoxybenzyl)-amine] | 0.9 | 
15 | COc1cccc(CNc2nc(N3CCN(C)CC3)nc3ccccc23)c1OC [Compound 290, (2,3-Dimethoxybenzyl)-[2-(4-methylpiperazino-1-yl)-quinazolino-4-yl]-amine] | 1.0 | 
16 | CCOc1nc(NCc2ccc(OC)cc2OC)c2ccccc2n1 [Compound 319, (2,4-Dimethoxybenzyl)-(2-ethoxyquinazolino-4-yl)-amine] | 1.5 | 
17 | COc1ccc(CNc2nc(N3CCCCC3)nc3ccccc23)cc1 [Compound 284, (4-Methoxybenzyl)-(2-piperidino-1-ylquinazolino-4-yl)-amine] | 1.4 | 
18 | c1ccc2c(NCc3ccc4c(c3)OCO4)nc(C3CC3)nc2c1 [Compound 385, Benzo[1,3]dioxol-5-ylmethyl-(2-cyclopropylquinazolino-4-yl)-amine] | 2.8 | 

Row | SMILES | AMPK activity (degree of phosphorylation of serine-79 and threonine-172) [2] | also measured
19 | COc1cccc(CNc2nc(N3CCN(C)CC3)nc3ccccc23)c1 [Compound 282, (3-Methoxybenzyl)-[2-(4-methylpiperazino-1-yl)-quinazolino-4-yl]-amine] | 0.9 | 
20 | COc1cc(CNc2nc(-c3cccs3)nc3ccccc23)cc(OC)c1OC [Compound 356, (2-Thiopenyl-2-ylquinazolino-4-yl)-(3,4,5-trimethoxybenzyl)-amine] | 1.4 | 
21 | COc1ccc(CNc2nc(C(OC)c3ccccc3)nc3ccccc23)cc1OC (centres unmarked) [Compound 366, (3,4-Dimethoxybenzyl)-[2-(methoxyphenylmethyl)-quinazolino-4-yl]-amine] | 1.6 | 
22 | COc1cccc(CNc2nc(N3CCCC3)nc3ccccc23)c1OC [Compound 287, (2,3-Dimethoxybenzyl)-(2-pyrrolidino-1-ylquinazolino-4-yl)-amine] | 1.2 | 
23 | COc1ccc(CNc2nc(-c3cccs3)nc3ccccc23)cc1 [Compound 351, (4-Methoxybenzyl)-(2-thiopenyl-2-ylquinazolino-4-yl)-amine] | 0.7 | 
24 | COc1cc(OC)c(CNc2nc(N3CCCC3)nc3ccccc23)c(OC)c1 [Compound 315, (2-Pyrrolidino-1-ylquinazolino-4-yl)-(2,4,6-trimethoxybenzyl)-amine] | 0.4 | 
25 | COc1cc(CNc2nc(N3CCN(C)CC3)nc3ccccc23)cc(OC)c1OC [Compound 314, [2-(4-Methylpiperazino-1-yl)-quinazolino-4-yl]-(3,4,5-trimethoxybenzyl)-amine] | 0.2 | 
26 | CCOc1nc(NCc2ccc3c(c2)OCO3)c2ccccc2n1 [Compound 320, Benzo[1,3]dioxol-5-ylmethyl-(2-ethoxyquinazolino-4-yl)-amine] | 0.9 | 
27 | c1csc(-c2nc(NCc3ccc4c(c3)OCO4)c3ccccc3n2)c1 [Compound 352, Benzo[1,3]dioxol-5-ylmethyl-(2-thiopenyl-2-ylquinazolino-4-yl)-amine] | 0.5 | 
28 | COc1cccc(CNc2nc(-c3cccs3)nc3ccccc23)c1 [Compound 350, (3-Methoxybenzyl)-(2-thiopenyl-2-ylquinazolino-4-yl)-amine] | 0.6 | 
29 | COc1cc(CNc2nc(C(OC)c3ccccc3)nc3ccccc23)cc(OC)c1 (centres unmarked) [Compound 365, (3,5-Dimethoxybenzyl)-[2-(methoxyphenylmethyl)-quinazolino-4-yl]-amine] | 1.1 | 
30 | CCCc1nc(NCc2cc(OC)c(OC)c(OC)c2)c2ccccc2n1 [Compound 400, (2-Propylquinazolino-4-yl)-(3,4,5-trimethoxybenzyl)-amine] | 0.4 | 
31 | COc1cc(OC)c(CNc2nc(N3CCOCC3)nc3ccccc23)c(OC)c1 [Compound 317, (2-Morpholino-4-ylquinazolino-4-yl)-(2,4,6-trimethoxybenzyl)-amine] | 0.3 | 
32 | COc1cccc(CNc2nc(N3CCOCC3)nc3ccccc23)c1OC [Compound 289, (2,3-Dimethoxybenzyl)-(2-morpholino-4-ylquinazolino-4-yl)-amine] | 1.5 | 
33 | COc1cc(OC)c(CNc2nc(-c3ccco3)nc3ccccc23)c(OC)c1 [Compound 348, (2-Furano-2-ylquinazolino-4-yl)-(2,4,6-trimethoxybenzyl)-amine] | 1.6 | 
34 | COc1cc(OC)c(CNc2nc(N3CCN(C)CC3)nc3ccccc23)c(OC)c1 [Compound 318, [2-(4-Methylpiperazino-1-yl)-quinazolino-4-yl]-(2,4,6-trimethoxybenzyl)-amine] | 0.5 | 
35 | COc1ccccc1CNc1nc(N2CCOCC2)nc2ccccc12 [Compound 277, (2-Methoxybenzyl)-(2-morpholino-4-ylquinazolino-4-yl)-amine] | 1.3 | 
36 | COc1cccc(CNc2nc(N3CCCCC3)nc3ccccc23)c1 [Compound 280, (3-Methoxybenzyl)-(2-piperidino-1-ylquinazolino-4-yl)-amine] | 1.2 | 
